Source: PMC12006171, “Marsupial cathelicidins: characterization, antimicrobial activity and evolution in this unique mammalian lineage” (Frontiers in Immunology, 2025)
Converted amounts (≈) assume the structure as drawn. Read-outs that look alike come from different tables or passages of the source. Where a SMILES comes first, the peptide text is derived from it.

Legend:
Assay type in all cases: cell-based
[1] = tested on: six bacteria (S. aureus, E. coli, P. aeruginosa; ATCC and clinical isolate); details: for Antibacterial (MIC <64ug/mL): synthesized mature peptide
Protocol: (§1) Antimicrobial testing of 78 cathelicidin MPs was performed in two phases as outlined in Figure 1 . In phase I, 40 peptides (27 extant and 13 ancestral) were selected for testing based on rank (outlined above) and similarity to published marsupial cathelicidins with known antimicrobial activity ([33], [41]–[43]). These peptides were tested against nine bacteria (Staphylococcus aureus ATCC 29213 and clinical isolate, Escherichia coli ATCC 25922 and clinical isolate, Pseudomonas aeruginosa ATCC 27853 and clinical isolate, Streptococcus agalactiae ATCC 12386 and clinical isolate, Streptococcus pneumoniae ATCC 49619) and three fungi (Candida krusei ATCC 6258, Candida parapsilosis ATCC 22019, and Candida albicans clinical isolate). Details regarding these strains are available in Supplementary Table 4 . The antimicrobial activity of cathelicidins was determined as the minimum inhibitory concentration (MIC), which was the lowest concentration of cathelicidin that prevented visible bacterial or fungal growth, relative to the negative control. […] Minimum bactericidal concentration (MBC) and/or minimum fungicidal concentration (MFC) was conducted to determine microbicidal versus static action. Activity against S. aureus ATCC, E. coli ATCC, and Pseudomonas aeruginosa ATCC 27853 was examined in the presence of divalent cations to determine the impact of inhibitors.
In phase II, the remaining 38 peptides (37 extant and one ancestral) were tested against six bacteria (S. aureus ATCC and clinical isolate, E. coli ATCC and clinical isolate, and P. aeruginosa ATCC and clinical isolate). […] No further testing on phase II peptides was performed. Detailed methods for all assays are provided in subsequent sections.
(§2) Antimicrobial activity was determined using a broth microdilution susceptibility assay in 96 well polypropylene plates according to Clinical Laboratory Standards Institute guidelines M07-A and M26A as described previously ([33], [42], [43]). The bacterial and fungal isolates from humans and animals used in this study are outlined in Supplementary Table 4 . Only yeasts were included in the panel of fungi as they have been used in the susceptibility testing of eutherian ([3], [81]–[83]) and other marsupial cathelicidins previously ([33], [42], [43]). Cathelicidin mature peptides were solubilized in DMSO and serially diluted in duplicate from 128-0.25μg/mL in a final volume of 100µL. For bacteria, cathelicidins were diluted in Mueller Hinton Broth (MHB) with or without 10% lysed horse blood, and with (MH II B) or without (MHB) calcium and magnesium cations. For fungi, cathelicidins were diluted in Roswell Park Memorial Institute medium (RPMI)-1640 MOPS. Ampicillin or tetracycline were included as a positive control for Gram-positive and -negative bacteria respectively, while amphotericin B was used for fungi. A media-only negative control and growth control (no cathelicidin) were also included on each plate. Bacteria were sub-cultured on Muller Hinton agar (MHA) or sheep blood agar (BA), and fungi on Sabouraud dextrose agar (SAB), 20–24 hours prior to the test. Colonies were suspended in saline, the concentration adjusted to a 0.5 McFarland standard, and then diluted in media to a concentration of 1.0 x 10^6 cells/mL. Then, 100μL was added to each well of the cathelicidin dilution plate, giving a final inoculum density of 5 x 10^5 CFU/mL and cathelicidin concentration of 64-0.125μg/mL. Colony counts were performed on MHA/BA/SAB to confirm inoculum density. All plates were incubated at 35°C for 20–24 hours, depending on the strain.
(§3) Colonies were counted and compared to the colony count of the starting inoculum.

[2] = tested on: three fungi (Candida krusei, Candida parapsilosis, Candida albicans); assay: Antifungal screening, summary over the panel of fungi (broth microdilution)
Protocol: as §1, §2, §3

[3] = tested on: Staphylococcus aureus clinical isolate – animal, penicillin-resistant (PRSA); details: clinical isolate – animal, penicillin-resistant (PRSA)
Procedure, shortened: (§4)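 Broth microdilution per CLSI M07-A/M26A; peptides in DMSO, final 64-0.125 μg/mL, inoculum 5 x 10^5 CFU/mL. Bacteria in MHB ± 10% lysed horse blood ± Ca/Mg cations, yeasts in RPMI-1640 MOPS; 35°C for 20–24 h. MIC is lowest concentration without visible growth.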

[4] = tested on: Staphylococcus aureus clinical isolate – animal, methicillin-resistant (MRSA); details: clinical isolate – animal, methicillin-resistant
Procedure, shortened: as §4

[5] = tested on: Staphylococcus aureus ATCC 29213; assay: microbe, parasite or virus in culture; details: ATCC 29213
Procedure, shortened: (§5)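 Broth microdilution following CLSI M07-A/M26A, using peptides at 64–0.125 μg/mL final in MHB, with or without 10% lysed horse blood and with or without Ca/Mg cations (MH II B). Inoculum 5 x 10^5 CFU/mL, incubated 20–24 h at 35 °C; MIC is lowest concentration preventing visible growth, MBC by colony counts versus starting inoculum.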

[6] = tested on: Pseudomonas aeruginosa ATCC 27853; assay: microbe, parasite or virus in culture; details: ATCC 27853; read-out: MIC P. aeruginosa ATCC
Procedure, shortened: as §5

[7] = tested on: Pseudomonas aeruginosa clinical isolate - animal; assay: microbe, parasite or virus in culture; details: clinical isolate - animal
Procedure, shortened: as §5

[8] = tested on: Escherichia coli ATCC 25922; assay: microbe, parasite or virus in culture; details: ATCC 25922
Procedure, shortened: as §5

[9] = tested on: Staphylococcus aureus clinical isolate - animal; assay: microbe, parasite or virus in culture; details: clinical isolate - animal
Procedure, shortened: as §5

[10] = tested on: Escherichia coli clinical isolate - animal; assay: microbe, parasite or virus in culture; details: clinical isolate - animal
Procedure, shortened: as §5

[11] = tested on: Candida parapsilosis ATCC 22019; assay: microbe, parasite or virus in culture; details: ATCC 22019
Procedure, shortened: as §4

[12] = tested on: Streptococcus agalactiae ATCC 12386; assay: microbe, parasite or virus in culture; details: ATCC 12386; read-out: MIC S. agalactiae ATCC
Procedure, shortened: as §4

[13] = tested on: Streptococcus agalactiae Clinical isolate - animal; assay: microbe, parasite or virus in culture; details: clinical isolate - animal
Procedure, shortened: as §4

Candida krusei ATCC 6258 = assay: microbe, parasite or virus in culture; details: ATCC 6258
Procedure, shortened: as §4

[14] = tested on: Candida albicans Clinical isolate - human; assay: microbe, parasite or virus in culture; details: Clinical isolate - human
Procedure, shortened: as §4

[15] = tested on: Streptococcus pneumoniae ATCC 49619; assay: microbe, parasite or virus in culture; details: ATCC 49619; read-out: MIC S. pneumoniae ATCC
Procedure, shortened: as §4

[16] = broth microdilution screening, phase I or II, Y/N summary over the bacteria tested
[17] = broth microdilution screening, phase I, Y/N summary over the fungi tested, synthesized mature peptide
[18] = antimicrobial screening Phase I, Y/N summary over bacteria tested, broth microdilution
[19] = synthesized mature peptide, antimicrobial screening Phase I, Y/N summary over fungi tested, broth microdilution

KRGLWESLKRKATKLGDDIRNTLRNFKIKVPVPRQWPIRV [MaruCath4p]
Antibacterial (MIC <64ug/mL) [1, 16]: Y (Antibacterial (MIC <64ug/mL)) | Antifungal (MIC <64ug/mL) [2, 17]: N (Antifungal (MIC <64ug/mL))

CC[C@H](C)[C@H](NC(=O)[C@H](CCCNC(=N)N)NC(=O)[C@H](CC(=O)O)NC(=O)[C@H](Cc1c[nH]c2ccccc12)NC(=O)[C@@H](NC(=O)[C@H](CCCNC(=N)N)NC(=O)[C@H](CCCNC(=N)N)NC(=O)[C@@H](NC(=O)[C@H](CC(C)C)NC(=O)[C@H](CCCNC(=N)N)NC(=O)CNC(=O)[C@H](CC(C)C)NC(=O)[C@H](CCCNC(=N)N)NC(=O)CNC(=O)[C@H](CCCNC(=N)N)NC(=O)[C@@H](N)CCCCN)[C@@H](C)CC)[C@@H](C)CC)C(=O)N[C@@H](CCCNC(=N)N)C(=O)NCC(=O)NCC(=O)O [MyfaCath7] (H-KRGRLGRLIRRIWDRIRGG-OH)
MIC against at least one strain [1]: 4 µg/mL (≈ 1.71 µM) | MBC PRSA [3]: 1.7 µM (≈ 3.97 µg/mL) | MIC PRSA [3]: 1.7 µM (≈ 3.97 µg/mL) | MBC MRSA [4]: 3.4 µM (≈ 7.94 µg/mL) | MIC MRSA [4]: 3.4 µM (≈ 7.94 µg/mL) | MBC S. aureus ATCC [5]: 3.4 (3.4)^3.4 µM | MIC S. aureus ATCC [5]: 3.4 (3.4)^3.4 µM | MIC in the presence of cations S. aureus ATCC [5]: 3.4 (3.4)^3.4 µM | MIC [6]: >27.4 µM | MBC P. aeruginosa [7]: > 27.4 µM | MIC ([7]; read-out: MIC P. aeruginosa): 13.7 µM (≈ 32 µg/mL) | MIC ([7]; read-out: MIC in the presence of cations P. aeruginosa): 27.4 µM | MBC E. coli ATCC [8]: 1.7 µM (≈ 3.97 µg/mL) | MIC ([8]; read-out: MIC E. coli ATCC): 1.7 µM (≈ 3.97 µg/mL) | MIC ([8]; read-out: MIC in the presence of cations E. coli ATCC): 3.4 µM | MBC S. aureus [9]: 3.4 (3.4)^3.4 µM | MIC S. aureus [9]: 3.4 (3.4)^3.4 µM | MIC in the presence of cations S. aureus [9]: 3.4 (3.4)^3.4 µM | MBC E. coli [10]: 1.7 (1.7)^1.7 µM | MIC E. coli [10]: 1.7 (1.7)^1.7 µM | MIC in the presence of cations E. coli [10]: 1.7 (1.7)^1.7 µM | MFC C. parapsilosis ATCC [11]: 13.7 µM (≈ 32 µg/mL) | MIC C. parapsilosis ATCC [11]: 13.7 µM (≈ 32 µg/mL) | MIC [12]: >27.4 µM | MBC S. agalactiae [13]: 13.7 µM (≈ 32 µg/mL) | MIC S. agalactiae [13]: 13.7 µM (≈ 32 µg/mL) | MFC C. krusei ATCC (Candida krusei ATCC 6258): 6.8 µM (≈ 15.9 µg/mL) | MIC C. krusei ATCC (Candida krusei ATCC 6258): 6.8 µM (≈ 15.9 µg/mL) | MFC C. albicans [14]: 27.4 µM (≈ 64 µg/mL) | MIC C. albicans [14]: 27.4 µM (≈ 64 µg/mL) | MIC [15]: >27.4 µM

SRGLRKKLKKLGKSIKKRLKNIKIGYSIPFPG [PspeCath1p]
Antifungal (MIC <64ug/mL) ([2]; Y/N summary over the fungi screened, broth microdilution, NT = not tested): Y (Antifungal (MIC <64ug/mL))

PGKRRGKLIKKGGKGVKRLLPKNGIIILPPG [MAP5, marsupial ancestral peptide, predicted by ANCESCON and GASP, synthesized]
Antibacterial (MIC <64ug/mL) [1, 18]: N (Antibacterial (MIC <64ug/mL)) | Antifungal (MIC <64ug/mL) [2, 19]: N (Antifungal (MIC <64ug/mL))

KVKRGLWEDLKRKATKFGDDIRNTLRNVKIKFPVPHLG [MagiCath9]
Antibacterial (MIC <64ug/mL) [1, 16]: N (Antibacterial (MIC <64ug/mL)) | Antifungal (MIC <64ug/mL) [2, 17]: N (Antifungal (MIC <64ug/mL))

RQIYDQAKYDILTGILRNF [BepeCath8]
Antibacterial (MIC <64ug/mL) [1, 18]: N (Antibacterial (MIC <64ug/mL)) | Antifungal (MIC <64ug/mL) [2, 19]: N (Antifungal (MIC <64ug/mL))

PELLRSRRSPLPRRKKGSKKNSYKTGGYSVIALGKSNVHKAPYMEAL [TrvuCath1]
Antibacterial (MIC <64ug/mL) [1, 16]: N (Antibacterial (MIC <64ug/mL)) | Antifungal (MIC <64ug/mL) [2, 17]: N (Antifungal (MIC <64ug/mL))

PKRKKGSKKRRFRPGGYTLIALGKPRVQKAPYMEAL [MAP3, marsupial ancestral peptide, likely linear, rich in arginine (32.2%) and proline (25.8%)]
Antibacterial (MIC <64ug/mL) [1, 18]: N (Antibacterial (MIC <64ug/mL)) | Antifungal (MIC <64ug/mL) [2, 19]: N (Antifungal (MIC <64ug/mL))

KRFGFRWFIRTLLRFRGEKVKTRFIFAIEKLIDT [MAP12, marsupial ancestral peptide, predicted by ANCESCON and GASP, synthesized]
Antibacterial (MIC <64ug/mL) [1, 18]: N (Antibacterial (MIC <64ug/mL)) | Antifungal (MIC <64ug/mL) [2, 19]: N (Antifungal (MIC <64ug/mL))

RSKRSSSLEEIDIDSLPPKVKEIYYRGIDDAIGGILRNF [TrvuCath4]
Antibacterial (MIC <64ug/mL) [1, 16]: N (Antibacterial (MIC <64ug/mL)) | Antifungal (MIC <64ug/mL) [2, 17]: N (Antifungal (MIC <64ug/mL))

RQRRLPFLGDPRRFPRPRGRPQPDPRQGRPN [MAP4, marsupial ancestral peptide, predicted by ANCESCON and GASP, synthesized]
Antibacterial (MIC <64ug/mL) [1, 18]: N (Antibacterial (MIC <64ug/mL)) | Antifungal (MIC <64ug/mL) [2, 19]: N (Antifungal (MIC <64ug/mL))
